{"source": "patent US5723494A", "about": "“Derivatives of glutamic and aspartic acids, a method of preparing them, and their use as drugs for enhancing memory and learning” (priority 1993, dated 1998)", "key": {"[1]": {"assay": "Memory-enhancement activity in the passive avoidance test in the rat", "format": "in vivo, rat (male Wistar)"}, "[2]": {"assay": "Antiamnesic activity in the mouse (step-down passive avoidance, amnesia induced by ECS)", "format": "in vivo, mouse (CD1 male)"}, "[3]": {"assay": "Antagonism of the amnesic effect induced by scopolamine in the passive avoidance test in the rat", "format": "in vivo", "details": "for % Effect vs controls / Latency (STL): FS + SCOP", "experimental": "4) Antagonism of the amnesic effect induced by scopolamine in the \"passive avoidance\" test in the rat.\nThe shuttle box equipment was used for passive avoidance as described in Experiment 2 with the following modifications: the compounds (or physiological solutions for the control group) were administered intraperitoneally (IP) 45 min before the training, whereas scopolamine (SCOP) was administered 30 min before the training. The foot shock (FS) consisted of a 0.2 mA shock of 5 sec duration.\nThe retest to determine memory was executed 24 h after the training. In each individual experiment, the following groups were used: a control group (-FS), a control group (+FS), a control group (FS+SCOP), 3 treatment groups with different doses of the product under test (FS+SCOP)."}, "[4]": {"details": "Rattus norvegicus, ip, 96 h, read-out: % variation vs controls (FS) in step through latency"}, "[5]": {"details": "Mus musculus, po, 24 h, read-out: Reversal of the amnesia (% vs controls), as the increase in the Step Down Latency"}}}
{"compound": "Nc1c2c(nc3ccccc13)CCCC2", "note": "[Tacrine, reference compound]", "values": [{"measurement": "change in vivo at 0.1 mg/kg", "setting": "[1]; [4]", "value": 7, "unit": "%"}, {"measurement": "change in vivo at 1 mg/kg", "setting": "[1]; [4]", "value": 6, "unit": "%"}, {"measurement": "change in vivo at 10 mg/kg", "setting": "[1]; [4]", "value": 12, "unit": "%"}, {"measurement": "Activity in increasing the avoidance time (in words)", "setting": "[1]; rat, IP, retest on the 4th day", "value": "inactive"}, {"measurement": "change in vivo at 0.1 mg/kg", "setting": "[2]; [5]", "value": 10, "unit": "%"}, {"measurement": "change in vivo at 1 mg/kg", "setting": "[2]; [5]", "value": 9, "unit": "%"}, {"measurement": "change in vivo at 3 mg/kg", "setting": "[2]; [5]", "value": 20, "unit": "%"}, {"measurement": "change in vivo at 10 mg/kg", "setting": "[2]; [5]", "value": 9, "unit": "%"}, {"measurement": "Antiamnesic activity (in words)", "setting": "[2]; OS, mouse", "value": "inactive"}, {"measurement": "% Effect vs controls", "setting": "[3]; 0.3 mg/kg IP", "value": 0, "unit": "%"}, {"measurement": "Latency (STL)", "setting": "[3]; 0.3 mg/kg IP", "value": 59.7, "unit": "s"}, {"measurement": "% Effect vs controls", "setting": "[3]; 1 mg/kg IP", "value": 41.1, "unit": "%"}, {"measurement": "Latency (STL)", "setting": "[3]; 1 mg/kg IP", "value": 73.1, "unit": "s"}, {"measurement": "% Effect vs controls", "setting": "[3]; 3 mg/kg IP", "value": 49.2, "unit": "%"}, {"measurement": "Latency (STL)", "setting": "[3]; 3 mg/kg IP", "value": 75.3, "unit": "s"}, {"measurement": "% Effect vs controls", "setting": "[3]; 10 mg/kg IP", "value": 64.8, "unit": "%"}, {"measurement": "Latency (STL)", "setting": "[3]; 10 mg/kg IP", "value": 79.5, "unit": "s"}, {"measurement": "ED50", "setting": "[3]; Rattus norvegicus, ip, 24 h, read-out: ID50 (dose antagonizing the amnesic effect of scopolamine by 50%)", "value": 3.4, "unit": "mg/kg"}]}
